Results taken from US10227376B2, “Radiolabeled cationic steroid antimicrobials and diagnostic methods” (BRIGHAM YOUNG UNIVERSITY, priority 2014, dated 2019).

Experiment: Stability of labeled compounds in human serum
Type: in vitro ADME
Settings: 64Cu labeled compound, four hours, 37 degrees C., 500 rpm incubation
Method: Stability of the labeled CSA-150 and CSA-151 compounds of Example 1 was measured. The labeled compounds were placed in human serum for four hours at 37 degrees C. at 500 rpm incubation.

CCCCCCCCN(CCCC(C)[C@H]1CC[C@H]2[C@@H]3[C@H](OCCCNC(C)=O)C[C@@H]4C[C@H](OCCCNC(C)=O)CC[C@]4(C)[C@H]3C[C@H](OCCCNC(C)=O)[C@]12C)C(=O)NCCOCCOCCOCCOCCNC(=O)CN1CCN(CC(=O)O)CCN(CC(=O)O)CC1 (stereo partly shown) (64Cu complex, metal not drawn) [CSA-151]
Stability of the labeled compound (% stable): 100%
